System: Scenedesmus cavuolatus (CS, Chlorella fusca)
Assay: Determination of the resistance to colonization by algae (render coat on paper, media for algae)
Assay type: cell-based
Details: +0.25% benzalkonium chloride, 50% strength, 5 month storage
Description: The unfinished material (commercially available render, pH 11.5) is treated, in separate batches, with different concentrations of the preservative A according to the invention.
The test was carried out once after the samples had been prepared and then after storage in wet render for 3 months or 5 months.
Laboratory method for determining the resistance of facade coats to colonization by algae. In this method, facade coats on standardized paper are used as the test substrate, and Scenedesmus cavuolatus (CS, Chlorella fusca) as the test alga.
The experiments are carried out in Petri dishes on media for algae.
1000 g of the material to be finished were, in separate batches, mixed with various concentrations of the test microbicide and homogenized using a suitable stirrer.
Paper supports (Schleicher & Schüll No. 2589 B/X 24078) 90×270 mm in size are coated with the test material. The paint or render samples are applied as a coat to wet-layer thickness of 250 μm, using a knife. The knife must have an opening of at least 6.5 cm in width. In the case of renders, the layer thickness depends on the particle size, as is the case under practice conditions. The coated supports, hereinbelow referred to as test specimens, are subsequently dried for 5 days in a horizontal position. […]
The colonization of the samples with algae is examined and evaluated after 2 weeks. […]

benzalkonium chloride [benzalkonium chloride, 50% strength]
Inhibitory zone in mm (first group of rows (leaching not given, presumably none)): >18 mm | Inhibitory zone in mm (second group of rows (leaching not given, presumably 72 h)): >18 mm
